Tests used:
Butyrylcholinesterase = Butyrylcholinesterase (Equus caballus, UniProt Q9N1N9)
Description: Inhibition of equine BChE by Ellman's method

Acetylcholinesterase = Acetylcholinesterase (Electrophorus electricus, UniProt O42275)
Description: Inhibition of electric eel AChE by Ellman's method

[1] = Inhibition of amyloid beta (1-42) self-mediated aggregation at 20 uM by thioflavin T fluorescence method

Acetylcholinesterase, sequence (O42275 whole entry): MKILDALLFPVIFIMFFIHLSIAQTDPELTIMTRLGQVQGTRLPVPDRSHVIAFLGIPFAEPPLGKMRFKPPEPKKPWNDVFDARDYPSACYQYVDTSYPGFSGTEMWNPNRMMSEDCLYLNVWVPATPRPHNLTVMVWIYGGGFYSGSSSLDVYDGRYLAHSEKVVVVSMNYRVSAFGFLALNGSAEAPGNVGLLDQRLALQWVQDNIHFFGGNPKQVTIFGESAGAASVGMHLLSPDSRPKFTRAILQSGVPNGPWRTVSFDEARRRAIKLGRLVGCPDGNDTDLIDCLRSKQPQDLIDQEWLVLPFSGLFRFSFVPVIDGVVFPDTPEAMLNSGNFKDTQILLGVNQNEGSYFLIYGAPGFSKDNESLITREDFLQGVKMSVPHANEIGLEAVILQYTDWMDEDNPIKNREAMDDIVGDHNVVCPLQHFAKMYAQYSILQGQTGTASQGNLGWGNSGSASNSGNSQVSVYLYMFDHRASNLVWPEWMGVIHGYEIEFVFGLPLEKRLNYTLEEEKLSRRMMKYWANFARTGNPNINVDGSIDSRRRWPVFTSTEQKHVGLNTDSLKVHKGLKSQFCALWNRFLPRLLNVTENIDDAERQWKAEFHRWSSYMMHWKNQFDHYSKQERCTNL
Butyrylcholinesterase, sequence (Q9N1N9 whole entry): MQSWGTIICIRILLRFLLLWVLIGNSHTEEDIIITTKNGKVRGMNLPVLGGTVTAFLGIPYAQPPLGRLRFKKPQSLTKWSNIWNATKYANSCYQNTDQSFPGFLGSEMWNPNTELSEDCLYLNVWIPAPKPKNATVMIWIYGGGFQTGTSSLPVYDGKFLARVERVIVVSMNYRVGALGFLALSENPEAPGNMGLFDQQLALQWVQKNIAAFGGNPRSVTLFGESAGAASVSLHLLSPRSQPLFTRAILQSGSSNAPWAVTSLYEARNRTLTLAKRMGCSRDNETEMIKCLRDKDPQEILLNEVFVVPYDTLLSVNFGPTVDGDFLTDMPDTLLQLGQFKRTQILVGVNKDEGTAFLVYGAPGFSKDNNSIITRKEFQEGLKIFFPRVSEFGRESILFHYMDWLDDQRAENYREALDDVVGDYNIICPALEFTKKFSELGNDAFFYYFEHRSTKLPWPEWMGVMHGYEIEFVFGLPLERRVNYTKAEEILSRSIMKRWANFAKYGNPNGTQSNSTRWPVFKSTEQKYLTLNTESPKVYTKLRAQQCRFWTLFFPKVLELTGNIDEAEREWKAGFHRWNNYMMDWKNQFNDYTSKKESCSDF

SMILES	IC50 (Butyrylcholinesterase)	IC50 (Acetylcholinesterase)	inhibition [1]
COc1cc(CNCCCCCCCCNc2c3c(nc4ccccc24)CCCC3)cc(OC)c1OC	3.38 nM	9.77 nM	
COc1cc(CNCCCCCCCCCNc2c3c(nc4ccccc24)CCCC3)cc2c1OCO2	11.4 nM	18.7 nM	68.5%
COc1cc(CNCCCCCCCCNc2c3c(nc4ccccc24)CCCC3)cc2c1OCO2	7.94 nM	7.98 nM	65.2%
COc1ccc(CNCCCCCCCNc2c3c(nc4ccccc24)CCCC3)cc1OC	5.51 nM	24 nM	
COc1cc(CNCCCCCCCNc2c3c(nc4ccccc24)CCCC3)cc2c1OCO2	9.73 nM	18.4 nM	65%
COc1cc(CNCCCCCCNc2c3c(nc4ccccc24)CCCC3)cc2c1OCO2	5.19 nM	20.5 nM	67.1%
COc1cc(CNCCCCCCCCCNc2c3c(nc4ccccc24)CCCC3)cc(OC)c1OC	4.73 nM	20.2 nM	
COc1cc(CNCCCCCCCNc2c3c(nc4ccccc24)CCCC3)cc(OC)c1OC	3.55 nM	17.3 nM	
COc1ccc(CNCCCCCCNc2c3c(nc4ccccc24)CCCC3)cc1OC	2.68 nM	30.9 nM	
COc1cc(CNCCCCNc2c3c(nc4ccccc24)CCCC3)cc2c1OCO2	46.3 nM	113 nM	63.8%
COc1ccc(CNCCCCCCCCCNc2c3c(nc4ccccc24)CCCC3)cc1OC	5.67 nM	25.1 nM	
COc1cc(CNCCCCCCNc2c3c(nc4ccccc24)CCCC3)cc(OC)c1OC	2.59 nM	22.4 nM	
COc1cc(CNCCCCCNc2c3c(nc4ccccc24)CCCC3)cc2c1OCO2	29.8 nM	78.6 nM	63.1%
COc1ccc(CNCCCCCCCCNc2c3c(nc4ccccc24)CCCC3)cc1OC	5.57 nM	11.3 nM	

From ChEMBL document CHEMBL1641506, “Design, synthesis and evaluation of novel tacrine-multialkoxybenzene hybrids as dual inhibitors for cholinesterases and amyloid beta aggregation” (Bioorg Med Chem, 2011)
